The NIST ThermoML archive (doi:10.1021/je700260f)

Conditions: Liquid, Vibrating tube method

FC(C(F)(F)F)C(F)(F)F [1,1,1,2,3,3,3-heptafluoropropane]
Conditions | mass density [kg/m3]
313.14 K, 30999 kPa | 1493.6
313.14 K, 31036 kPa | 1493.7
313.14 K, 31073 kPa | 1494
313.14 K, 31110 kPa | 1494.1
313.14 K, 31162 kPa | 1494.3
313.14 K, 31193 kPa | 1494.3
313.14 K, 31225 kPa | 1494.5
313.14 K, 31252 kPa | 1494.5
313.14 K, 31284 kPa | 1494.6
313.14 K, 31324 kPa | 1494.9
313.14 K, 31355 kPa | 1494.8
313.14 K, 31397 kPa | 1495.1
313.14 K, 31585 kPa | 1495.6
313.14 K, 31617 kPa | 1495.8
313.14 K, 31653 kPa | 1495.9
313.14 K, 31696 kPa | 1495.9
313.14 K, 31739 kPa | 1496.2
313.14 K, 32132 kPa | 1497.6
313.14 K, 32203 kPa | 1497.7
313.14 K, 32369 kPa | 1498.3
313.14 K, 32414 kPa | 1498.5
313.14 K, 32447 kPa | 1498.5
313.14 K, 32485 kPa | 1498.7
313.14 K, 32523 kPa | 1498.9
313.14 K, 32566 kPa | 1499
313.14 K, 32604 kPa | 1499
313.14 K, 32652 kPa | 1499.4
313.14 K, 32736 kPa | 1499.5
313.14 K, 32789 kPa | 1499.7
313.14 K, 32821 kPa | 1500
313.14 K, 32853 kPa | 1500
313.14 K, 32900 kPa | 1500.1
313.14 K, 32937 kPa | 1500.2
313.14 K, 32975 kPa | 1500.4
313.14 K, 33013 kPa | 1500.5
313.14 K, 33094 kPa | 1500.7
313.15 K, 714 kPa | 1321.1
313.15 K, 733 kPa | 1321.4
313.15 K, 755 kPa | 1321.6
313.15 K, 777 kPa | 1321.7
313.15 K, 797 kPa | 1322.1
313.15 K, 819 kPa | 1322.3
313.15 K, 838 kPa | 1322.5
313.15 K, 871 kPa | 1322.8
313.15 K, 891 kPa | 1323.2
313.15 K, 917 kPa | 1323.3
313.15 K, 934 kPa | 1323.7
313.15 K, 963 kPa | 1323.9
313.15 K, 985 kPa | 1324
313.15 K, 1014 kPa | 1324.4
313.15 K, 1036 kPa | 1324.7
313.15 K, 1063 kPa | 1325
313.15 K, 1087 kPa | 1325.1
313.15 K, 1117 kPa | 1325.7
313.15 K, 1146 kPa | 1325.9
313.15 K, 1167 kPa | 1326.1
313.15 K, 1191 kPa | 1326.5
313.15 K, 1222 kPa | 1326.6
313.15 K, 1249 kPa | 1327
313.15 K, 1273 kPa | 1327.4
313.15 K, 1296 kPa | 1327.6
313.15 K, 1317 kPa | 1327.7
313.15 K, 1338 kPa | 1328
313.15 K, 1369 kPa | 1328.3
313.15 K, 1396 kPa | 1328.6
313.15 K, 1472 kPa | 1329.4
313.15 K, 1496 kPa | 1329.6
313.15 K, 1525 kPa | 1330
313.15 K, 1550 kPa | 1330.3
313.15 K, 1575 kPa | 1330.4
313.15 K, 1597 kPa | 1330.7
313.15 K, 1618 kPa | 1331
313.15 K, 1653 kPa | 1331.4
313.15 K, 1677 kPa | 1331.6
313.15 K, 1698 kPa | 1331.7
313.15 K, 1726 kPa | 1332.2
313.15 K, 1744 kPa | 1332.4
313.15 K, 1772 kPa | 1332.6
313.15 K, 1793 kPa | 1332.8
313.15 K, 1811 kPa | 1333
313.15 K, 1836 kPa | 1333.3
313.15 K, 1864 kPa | 1333.4
313.15 K, 1893 kPa | 1333.9
313.15 K, 1921 kPa | 1334.1
313.15 K, 1946 kPa | 1334.4
313.15 K, 1972 kPa | 1334.7
313.15 K, 1998 kPa | 1334.8
313.15 K, 2028 kPa | 1335.1
313.15 K, 2049 kPa | 1335.2
313.15 K, 2077 kPa | 1335.6
313.15 K, 2102 kPa | 1335.9
313.15 K, 2131 kPa | 1336.1
313.15 K, 2153 kPa | 1336.4
313.15 K, 2183 kPa | 1336.7
313.15 K, 2208 kPa | 1337
313.15 K, 2230 kPa | 1337.2
313.15 K, 2692 kPa | 1341.6
313.15 K, 2720 kPa | 1342
313.15 K, 2751 kPa | 1342.2
313.15 K, 2775 kPa | 1342.4
313.15 K, 2803 kPa | 1342.8
313.15 K, 2825 kPa | 1342.9
313.15 K, 2851 kPa | 1343.2
313.15 K, 2872 kPa | 1343.4
313.15 K, 2905 kPa | 1343.7
313.15 K, 2928 kPa | 1343.9
313.15 K, 2959 kPa | 1344.2
313.15 K, 2986 kPa | 1344.4
313.15 K, 3012 kPa | 1344.6
313.15 K, 3042 kPa | 1345
313.15 K, 3072 kPa | 1345.3
313.15 K, 3095 kPa | 1345.4
313.15 K, 3298 kPa | 1347.3
313.15 K, 3325 kPa | 1347.5
313.15 K, 3356 kPa | 1347.8
313.15 K, 3379 kPa | 1348
313.15 K, 3402 kPa | 1348.2
313.15 K, 3437 kPa | 1348.6
313.15 K, 3464 kPa | 1348.7
313.15 K, 3491 kPa | 1349.1
313.15 K, 3518 kPa | 1349.3
313.15 K, 3548 kPa | 1349.5
313.15 K, 3572 kPa | 1349.7
313.15 K, 3603 kPa | 1350.1
313.15 K, 3625 kPa | 1350.2
313.15 K, 3656 kPa | 1350.5
313.15 K, 3679 kPa | 1350.7
313.15 K, 3702 kPa | 1350.9
313.15 K, 3737 kPa | 1351.2
313.15 K, 3761 kPa | 1351.4
313.15 K, 3794 kPa | 1351.7
313.15 K, 3822 kPa | 1352
313.15 K, 3858 kPa | 1352.3
313.15 K, 3898 kPa | 1352.7
313.15 K, 3926 kPa | 1352.9
313.15 K, 3954 kPa | 1353.2
313.15 K, 3982 kPa | 1353.4
313.15 K, 4018 kPa | 1353.5
313.15 K, 4043 kPa | 1353.9
313.15 K, 4079 kPa | 1354.3
313.15 K, 4110 kPa | 1354.6
313.15 K, 4134 kPa | 1354.8
313.15 K, 4167 kPa | 1355
313.15 K, 4208 kPa | 1355.4
313.15 K, 4360 kPa | 1356.6
313.15 K, 4382 kPa | 1356.8
313.15 K, 4410 kPa | 1357
313.15 K, 4435 kPa | 1357.3
313.15 K, 4463 kPa | 1357.5
313.15 K, 4732 kPa | 1359.7
313.15 K, 4757 kPa | 1360
313.15 K, 4793 kPa | 1360.1
313.15 K, 4811 kPa | 1360.4
313.15 K, 4847 kPa | 1360.6
313.15 K, 4872 kPa | 1360.9
313.15 K, 4904 kPa | 1361.1
313.15 K, 4929 kPa | 1361.5
313.15 K, 4958 kPa | 1361.6
313.15 K, 4976 kPa | 1361.7
313.15 K, 5023 kPa | 1362.3
313.15 K, 5048 kPa | 1362.3
313.15 K, 5074 kPa | 1362.5
313.15 K, 5096 kPa | 1362.7
313.15 K, 5125 kPa | 1363.1
313.15 K, 5148 kPa | 1363.1
313.15 K, 5167 kPa | 1363.4
313.15 K, 5200 kPa | 1363.6
313.15 K, 5222 kPa | 1363.9
313.15 K, 5259 kPa | 1364
313.15 K, 5281 kPa | 1364.2
313.15 K, 5308 kPa | 1364.4
313.15 K, 5330 kPa | 1364.6
313.15 K, 5357 kPa | 1364.8
313.15 K, 5383 kPa | 1365.1
313.15 K, 5409 kPa | 1365.3
313.15 K, 5434 kPa | 1365.4
313.15 K, 5457 kPa | 1365.7
313.15 K, 5485 kPa | 1365.9
313.15 K, 5508 kPa | 1366.1
313.15 K, 5534 kPa | 1366.3
313.15 K, 5560 kPa | 1366.5
313.15 K, 5593 kPa | 1366.7
313.15 K, 5616 kPa | 1366.9
313.15 K, 5646 kPa | 1367.1
313.15 K, 5672 kPa | 1367.3
313.15 K, 5694 kPa | 1367.6
313.15 K, 5717 kPa | 1367.8
313.15 K, 5739 kPa | 1367.9
313.15 K, 5766 kPa | 1368
313.15 K, 5801 kPa | 1368.3
313.15 K, 5828 kPa | 1368.5
313.15 K, 5847 kPa | 1368.7
313.15 K, 5870 kPa | 1368.9
313.15 K, 5901 kPa | 1369.2
313.15 K, 5932 kPa | 1369.4
313.15 K, 5959 kPa | 1369.7
313.15 K, 5987 kPa | 1369.8
313.15 K, 6022 kPa | 1370
313.15 K, 6049 kPa | 1370.4
313.15 K, 6073 kPa | 1370.5
313.15 K, 6096 kPa | 1370.6
313.15 K, 6128 kPa | 1370.8
313.15 K, 6163 kPa | 1371.1
313.15 K, 6406 kPa | 1372.9
313.15 K, 6434 kPa | 1373
